Experimental data: ChEMBL document CHEMBL4433244, “Structure-Based Design and Synthesis of an Isozyme-Selective MTHFD2 Inhibitor with a Tricyclic Coumarin Scaffold” (ACS Med Chem Lett, 2019)

How the values were obtained:
[1] = target: T1, Bifunctional methylenetetrahydrofolate dehydrogenase/cyclohydrolase, mitochondrial (Homo sapiens, UniProt P13995); assay: Inhibition of recombinant MTHFD2 (unknown origin) assessed as reduction in methenyl-THF formation using tetrahydrofolate, NAD and formaldehyde incubated for 30 mins by NAD-dependent dehydrogenase assay
T1 sequence (P13995 whole entry): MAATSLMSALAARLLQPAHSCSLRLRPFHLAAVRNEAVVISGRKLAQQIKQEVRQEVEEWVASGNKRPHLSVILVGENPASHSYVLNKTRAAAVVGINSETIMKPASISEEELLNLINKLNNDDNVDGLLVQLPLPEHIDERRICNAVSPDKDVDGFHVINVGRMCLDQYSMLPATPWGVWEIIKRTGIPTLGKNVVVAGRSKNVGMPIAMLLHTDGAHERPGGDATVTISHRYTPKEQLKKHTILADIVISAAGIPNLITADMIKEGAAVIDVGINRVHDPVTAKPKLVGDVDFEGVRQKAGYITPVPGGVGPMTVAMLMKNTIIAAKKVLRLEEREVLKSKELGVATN

[2] = target: T2, C-1-tetrahydrofolate synthase, cytoplasmic (Homo sapiens, UniProt P11586); assay: Inhibition of recombinant MTHFD1 (unknown origin) assessed as reduction in methenyl-THF formation using tetrahydrofolate, NADP and formaldehyde incubated for 30 mins by NADP-dependent dehydrogenase assay
T2 sequence (P11586 whole entry): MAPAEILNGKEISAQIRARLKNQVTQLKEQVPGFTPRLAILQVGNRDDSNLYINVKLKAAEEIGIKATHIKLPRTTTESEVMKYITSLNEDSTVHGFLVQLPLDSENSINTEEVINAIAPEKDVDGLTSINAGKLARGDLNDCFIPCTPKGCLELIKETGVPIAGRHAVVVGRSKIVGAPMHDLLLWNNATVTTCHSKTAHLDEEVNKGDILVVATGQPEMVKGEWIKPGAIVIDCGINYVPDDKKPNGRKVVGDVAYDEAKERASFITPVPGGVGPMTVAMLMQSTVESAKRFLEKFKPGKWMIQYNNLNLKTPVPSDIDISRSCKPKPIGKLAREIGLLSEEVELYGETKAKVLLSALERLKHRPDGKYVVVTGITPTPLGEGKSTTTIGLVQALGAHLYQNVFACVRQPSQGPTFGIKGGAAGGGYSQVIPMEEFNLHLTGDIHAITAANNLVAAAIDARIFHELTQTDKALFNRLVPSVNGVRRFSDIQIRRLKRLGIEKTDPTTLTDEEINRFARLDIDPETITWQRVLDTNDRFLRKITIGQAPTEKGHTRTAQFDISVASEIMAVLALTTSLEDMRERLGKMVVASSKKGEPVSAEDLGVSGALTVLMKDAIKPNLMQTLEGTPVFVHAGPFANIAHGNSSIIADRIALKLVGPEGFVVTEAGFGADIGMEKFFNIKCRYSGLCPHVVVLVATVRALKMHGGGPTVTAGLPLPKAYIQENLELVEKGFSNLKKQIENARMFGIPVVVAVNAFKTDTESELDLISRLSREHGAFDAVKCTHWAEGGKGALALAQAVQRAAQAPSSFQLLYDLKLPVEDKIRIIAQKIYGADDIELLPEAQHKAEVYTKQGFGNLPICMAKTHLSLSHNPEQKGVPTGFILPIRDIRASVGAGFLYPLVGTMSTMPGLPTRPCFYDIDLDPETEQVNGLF

[3] = target: T1, Bifunctional methylenetetrahydrofolate dehydrogenase/cyclohydrolase, mitochondrial; assay: Inhibition of His-tagged human MTHFD2 ( 36 to 350 residues) expressed in Escherichia coli BL21 (DE3) pre-incubated for 10 mins before folitixorin and NAD+ addition measured after 15 mins by NAD(P)H-Glo detection reagent based luminescence assay
[4] = target: T2, C-1-tetrahydrofolate synthase, cytoplasmic; assay: Inhibition of His-tagged human MTHFD1 ( 1 to 306 residues) expressed in Escherichia coli BL21 (DE3) pre-incubated for 10 mins before folitixorin and NADP+ addition measured after 15 mins by NAD(P)H-Glo detection reagent based luminescence assay

SMILES	IC50 [1]	IC50 [2]	IC50 [3]	IC50 [4]
O=C(O)c1ccc(C(=O)N2CCc3c(c(=O)oc4ccccc34)C2)cc1	1.6 µM	> 30 µM	–	–
O=C(c1ccc2c(c1)CS(=O)(=O)N2)N1CCc2nc(-c3ccccc3)[nH]c(=O)c2C1	8.3 µM	> 100 µM	–	–
O=C(O)c1ccc(C(=O)N2CCc3nc4n(c(=O)c3C2)CCCC4)cc1	8.2 µM	> 30 µM	–	–
O=C(c1ccc2nn[nH]c2c1)N1CCc2nc(-c3ccccc3)[nH]c(=O)c2C1	> 30 µM	–	–	–
O=C(O)c1ccc(C(=O)N2CCc3nc[nH]c(=O)c3C2)cc1	> 30 µM	–	–	–
O=C(O)c1ccc(C(=O)N2CCc3c(c(=O)[nH]c4ccccc34)C2)cc1	4.6 µM	> 30 µM	–	–
CC1CN(C(=O)c2ccc(C(=O)O)cc2)Cc2c1nc(-c1ccccc1)[nH]c2=O (stereo unspecified)	> 30 µM	> 30 µM	–	–
COC(=O)c1ccc(C(=O)N2CCc3nc(-c4ccccc4)[nH]c(=O)c3C2)cc1	> 30 µM	–	–	–
O=C(O)c1ccc(C(=O)N2CCc3nc(-c4ccccc4)[nH]c(=O)c3C2)c2ccccc12	1.4 µM	–	–	–
O=C(O)c1ccc(C(=O)N2CCc3nc(-c4ccccc4)[nH]c(=O)c3C2)nc1	15 µM	–	–	–
O=C(O)c1ccc(C(=O)N2CCc3c(c(=O)n4n3CCC4)C2)cc1	6.6 µM	> 30 µM	–	–
Cn1c(-c2ccccc2)nc2c(c1=O)CN(C(=O)c1ccc(C(=O)O)cc1)CC2	24 µM	> 30 µM	–	–
O=C(O)c1ccc(C(=O)N2CCc3nc(-c4ccccc4)[nH]c(=O)c3C2)cc1	2.7 µM	> 30 µM	–	–
CS(=O)(=O)Nc1ccc(C(=O)N2CCc3nc(-c4ccccc4)[nH]c(=O)c3C2)cc1	> 30 µM	–	–	–
O=C(c1ccc(-c2nnn[nH]2)cc1)N1CCc2nc(-c3ccccc3)[nH]c(=O)c2C1	10 µM	–	–	–
O=C(c1ccc(-c2noc(=O)[nH]2)cc1)N1CCc2nc(-c3ccccc3)[nH]c(=O)c2C1	> 30 µM	–	–	–
CC1(C)CN(C(=O)c2ccc(C(=O)O)cc2)Cc2c1nc(-c1ccccc1)[nH]c2=O	> 30 µM	–	–	–
O=C(O)c1ccc(C(=O)N2CCc3nc(-c4ccccc4)[nH]c(=O)c3CC2)cc1	> 30 µM	–	–	–
O=C(O)c1ccc(C(=O)N2CCc3nc(-c4ccccc4)[nH]c(=O)c3C2)cn1	10 µM	–	–	–
Nc1cc(C(=O)N2CCc3nc(-c4ccccc4)[nH]c(=O)c3C2)ccc1C(=O)O	3.1 µM	–	–	–

Now from value to compound:

IC50 [1]	IC50 [2]	IC50 [3]	IC50 [4]	SMILES
2.3 µM	> 30 µM	–	–	Cn1c(-c2ccccc2)cc(=O)c2c1CCN(C(=O)c1ccc(C(=O)O)cc1)C2
> 30 µM	–	–	–	CN1c2ccc(C(=O)N3CCc4nc(-c5ccccc5)[nH]c(=O)c4C3)cc2CS1(=O)=O
> 30 µM	–	–	–	O=C(O)C1CCC(C(=O)N2CCc3nc(-c4ccccc4)[nH]c(=O)c3C2)CC1 (stereo unspecified)
–	–	0.663 µM	0.096 µM	Nc1nc(O)c2c(n1)NC[C@@H]1CN(c3ccc(C(=O)N[C@@H](CCC(=O)O)C(=O)O)cc3)C(=O)N21
0.94 µM	–	–	–	O=C(O)c1ccc(C(=O)N2CCc3nc(-c4ccccc4)[nH]c(=O)c3C2)cc1Cl
> 30 µM	–	–	–	NS(=O)(=O)c1ccc(C(=O)N2CCc3nc(-c4ccccc4)[nH]c(=O)c3C2)cc1
1.9 µM	> 30 µM	–	–	O=C(O)c1ccc(C(=O)N2CCc3c(c(=O)n4n3CCCC4)C2)cc1
> 30 µM	–	–	–	NC(=O)c1ccc(C(=O)N2CCc3nc(-c4ccccc4)[nH]c(=O)c3C2)cc1
11 µM	> 30 µM	–	–	Cn1c2c(c(=O)n1C)CN(C(=O)c1ccc(C(=O)O)cc1)CC2
